{"source": "patent US7851487B2", "about": "“Use of tetrahydropyridines in the treatment of central nervous system disorders” (The Research Foundation of State University of New York, priority 2006, dated 2010)", "key": {"[1]": {"molecular_target": "T1, Serotonin 5HT1A (Homo sapiens, UniProt P08908)", "T1 sequence (P08908 1-422)": "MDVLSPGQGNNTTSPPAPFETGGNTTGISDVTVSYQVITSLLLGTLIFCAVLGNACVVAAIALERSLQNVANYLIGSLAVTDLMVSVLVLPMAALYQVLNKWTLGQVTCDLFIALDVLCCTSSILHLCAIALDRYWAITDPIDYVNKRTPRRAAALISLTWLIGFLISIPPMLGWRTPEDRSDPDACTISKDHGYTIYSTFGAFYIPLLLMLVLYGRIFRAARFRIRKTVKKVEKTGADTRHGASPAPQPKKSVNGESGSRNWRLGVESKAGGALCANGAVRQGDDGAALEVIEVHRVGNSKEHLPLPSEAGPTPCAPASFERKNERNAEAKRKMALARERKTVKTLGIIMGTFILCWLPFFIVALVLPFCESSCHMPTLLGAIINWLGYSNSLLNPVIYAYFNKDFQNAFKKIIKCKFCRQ", "assay": "Radioligand binding, Serotonin 5HT1A", "conditions": "read-out: Percentage Inhibition", "experimental": "(§1) The assays utilized human neuroreceptors and were performed under the experimental parameters set forth in Table 2 using standard techniques.\n(§2) For Table 3, IC50 values were determined by non-linear, least squares regression analysis using Data Analysis Toolbox™ (MDL Information Systems, San Leandro, Calif., USA). Inhibition constants (KI) were calculated using the equation of Cheng and Prusoff (Cheng, Y., et al. Biochem. Pharmacol. 22:3099-3108, 1973) using the observed IC50 of the tested compound, the concentration of radioligand employed in the assay, and the values for the KD of the ligand. The Hill coefficient (nH), defining the slope of the competitive binding curve, was calculated using the Data Analysis Toolbox™. Biochemical assay results are presented as the percent inhibition of specific binding or activity unless indicated otherwise. The experiments summarized in Table 3 utilized human dopamine D1, D2 s, D21, D3, D4.2, D4.4, serotonin 5HT1A, 5HT2A, 5HT2C, 5HT6, 5HT7, dopamine transporter (DAT), serotonin transporter (SERT) and the norepinephrine transporter (NET), as indicated in Table 3."}, "[2]": {"molecular_target": "T2, Serotonin 5HT2A (Homo sapiens, UniProt P28223)", "T2 construct": "host or cells: CHO-K1 cells", "T2 sequence (P28223 whole entry)": "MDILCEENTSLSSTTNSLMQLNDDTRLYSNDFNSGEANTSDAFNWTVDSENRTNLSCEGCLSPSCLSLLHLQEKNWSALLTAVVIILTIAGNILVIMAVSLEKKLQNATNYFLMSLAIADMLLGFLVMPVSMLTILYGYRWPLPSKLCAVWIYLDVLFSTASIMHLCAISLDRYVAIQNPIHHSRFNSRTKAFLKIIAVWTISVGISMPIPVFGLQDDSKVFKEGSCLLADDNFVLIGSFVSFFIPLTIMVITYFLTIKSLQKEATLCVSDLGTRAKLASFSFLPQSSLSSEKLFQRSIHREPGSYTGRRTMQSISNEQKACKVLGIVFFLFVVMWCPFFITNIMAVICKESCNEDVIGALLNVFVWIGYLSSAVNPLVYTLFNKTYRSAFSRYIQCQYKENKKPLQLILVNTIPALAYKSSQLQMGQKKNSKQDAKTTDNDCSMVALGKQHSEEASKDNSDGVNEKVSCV", "assay": "Radioligand binding, Serotonin 5HT2A ([3H]Ketanserin)", "experimental": "as §1, §2"}}}
{"smiles": "COC(=O)[C@@H](c1ccc(-c2ccccc2)cc1)[C@H]1C=CCCN1", "note": "[Compound 2]", "values": [{"measurement": "inhibition at 10 µM", "setting": "[1]", "value": 13, "unit": "%"}, {"measurement": "IC50", "setting": "[2]", "value": 797, "unit": "nM"}, {"measurement": "Ki", "setting": "[2]", "value": 228, "unit": "nM"}, {"measurement": "inhibition at 1 µM", "setting": "[2]; Serotonin 5HT2A, 1 μM, read-out: Percentage Inhibition", "value": 61, "unit": "%"}, {"measurement": "inhibition at 10 µM", "setting": "[2]; Serotonin 5HT2A, 10 μM, read-out: Percentage Inhibition", "value": 94, "unit": "%"}, {"measurement": "nH", "setting": "[2]; Serotonin 5HT2A, Hill coefficient", "value": 1.02}]}
